{"source": "paper PMC8910920", "about": "(International Journal of Molecular Sciences, 2022)", "key": {"[1]": {"tested_on": "CCI rats, cold hypersensitivity", "assay": "CCI model of neuropathic pain, cold sensitivity (acetone test)", "type": "in vivo, rat", "settings": "for cold hypersensitivity in CCI rats: 30 min after injection", "procedure": "The CCI model of neuropathic pain allowed the evaluation of the effect RGM8-51 on cold, heat and mechanical sensitivity, as assayed by the acetone test, the Hargreaves test, and the automatized von Frey test, respectively. RGM8-51 was applied either locally (i.pl.; 10 µg) in the affected paw or systemically (intraperitoneally, i.p., 10 and 30 mg/kg) and the effect evaluated before (Baseline) and after CCI surgery. The nocifensive response after administration of RGM8-51 was compared with that of vehicle, while non-operated animals and the uninjured (contralateral) hind paw in CCI animals were used as controls.\nAdult male Sprague-Dawley rats (weighing 200–220 g/6–8 weeks old) were used in these experiments. All experimental procedures were conducted according to the animal welfare guidelines of the European Community (European Directive 2010/63/UE) to minimize animal suffering and were approved by Universidad Complutense de Madrid and Comunidad de Madrid ethical committees on animal experimentation (PROEX 207.8/21). […]\nFor behavioral testing, rats were placed in individual methacrylate boxes with a wire mesh floor, and after a period of 15 min acclimatization, the cold, heat and mechanical sensitivity of the ipsilateral and contralateral paws was determined. Cold sensitivity was assessed with the acetone test. In total, 100 µL acetone were locally applied to the plantar surface of the hind paw and the duration of the subsequent nocifensive response (licking, brushing, and flinching of the paw) was determined during 60 s. Acetone application and assessment were repeated 2 times with a 5 min interval and the sum of the two values was recorded. Heat sensitivity was determined with the Hargreaves test, which uses infrared light as a heat source, with a Hargreaves apparatus (Serie 8, Model 336, IITC Life Science, Woodland Hills, CA USA). The light beam was directed to the plantar surface of the hind paw and the time from the beginning of irradiation to the appearance of first paw withdrawal movement was measured (paw withdrawal latency). […]"}, "[2]": {"tested_on": "NTG-induced mechanical hypersensitivity in C57BL6 mice", "assay": "NTG-induced mechanical hypersensitivity, von Frey test", "type": "in vivo, mouse", "source_text": "Administration of NTG intermittently produces a baseline hypersensitivity to mechanical stimulation, which can be measured by the von Frey test. The mechanical stimulus was applied at different times to obtain the time course of the effects produced after compound administration, and both male and female mice were used to investigate a possible sex dimorphism.\nC57BL6 mice (males and females, ≈25 g) (Envigo, Blackthorn, UK) were used for the study. All experiments were approved by the Institutional Animal and Ethical Committee of the Universidad Miguel Hernandez where experiments were conducted and they were in accordance with the guidelines of the Economic European Community and the Committee for Research and Ethical Issues of the International Association for the Study of Pain. All parts of the study concerning animal care were performed under the control of veterinarians. […] The 50% response threshold was calculated using the following formula:50% (g) threshold = (10^(Xf + kd))/10,000 where Xf is the value of the last von Frey filament applied; k is a correction factor based on pattern of responses (from the Dixon’s calibration table); d is the mean distance in log units between stimuli (here, 0.4).\nVon Frey threshold for each animal was calculated, according to the formula, and data analysis was performed by using GraphPad 6.0. […]"}}, "note": "Entries after “also recorded” stand apart in the source; their conditions may differ."}
{"smiles": "C[C@@H]1C(=O)N(C[C@H](Cc2ccccc2)N(Cc2ccccc2)Cc2ccccc2)[C@]1(Cc1ccccc1)C(=O)OC(C)(C)C", "note": "[RGM8-51, 4(S)-Benzyl-3S-methyl-4-(tert-butoxy)carbonyl-1-[(2′S-dibenzylamino-3′-phenyl)prop-1′-yl]-2-oxoazetidine]", "values": [{"measurement": "cold hypersensitivity in CCI rats", "setting": "[1]; i.p. 10 and 30 mg/kg", "value": "inhibited it dose-dependently"}, {"measurement": "cold hypersensitivity in CCI rats", "setting": "[1]; i.pl. 10 µg", "value": "reduced cold hypersensitivity"}, {"measurement": "response to cold in non-operated animals (baseline) or contralateral uninjured paw", "setting": "[1]; i.pl. or i.p.", "value": "no effect was observed"}, {"measurement": "NTG-induced mechanical hypersensitivity, male mice", "setting": "[2]; 30 mg/kg i.p., 60 min post-administration (only this dose and time)", "value": "significantly blocked"}, {"measurement": "NTG-induced mechanical hypersensitivity, female mice", "setting": "[2]; 10 and 30 mg/kg i.p., significant at 30 min, lasting even after 120 min", "value": "fully blocked; also recorded: significantly reduces the hypersensitivity threshold induced by NTG"}]}
